Source: US20150182629A1, “STABLE COMPOSITIONS OF FESOTERODINE” (HETERO RESEARCH FOUNDATION, priority 2012, published 2015)

Test: Stability evaluation of drug-excipient blend (impurities initially and after storage)
Type: physicochemical
Protocol: According to the present invention stability of drug-excipient blend was evaluated based on percentage w/w of 2-((R)-3-(diisopropylamino)-1-phenylpropyl)-4-(hydroxymethyl)phenol impurity (H-FTFRC-01) and total impurities present in drug-excipient blend, initially and after storage for one month at 40° C. and 75% relative humidity.

H-FTFRC-01 impurity (40° C./75% RH, 1 month): 0.524 % w/w
Total Impurities (40° C./75% RH, 1 month): 1.245 % w/w
H-FTFRC-01 impurity (Initial): 0.284 % w/w
Total Impurities (Initial): 0.800 % w/w
Structure (SMILES): CC(C)C(=O)Oc1ccc(CO)cc1[C@H](CCN(C(C)C)C(C)C)c1ccccc1.O=C(O)/C=C/C(=O)O [Fesoterodine fumarate, isobutyric acid 2-((R)-3-diisopropylammonium-1phenylpropyl)-4-(hydroxymethyl) phenyl ester hydrogen fumarate]
